For this data set, the system named is mouse liver microsomes, stability LC-MS/MS, 1 uM. The experiment in a line: Inhibitors of HPGD: Mouse Liver Microsome Profiling. The conditions noted are these: at 1 µM, stronger effect = higher value.

The record followed here is PubChem BioAssay AID504638 (National Center for Advancing Translational Sciences (NCATS), 2011).

What is called half-life is the time needed for the level to fall by half in the phase considered.

`Cc1cccc(-n2cnc3cc(C(=O)N4CCCCC4)ccc32)c1`: the half-life was 9 min.

Regarding `Cc1cc(-c2nnc3n2CCCCC3)c(C)n1-c1ccccc1`, the half-life was 8 min.
